The term Dmax denotes the largest share of the target that was removed. A word on the DC50: it is the concentration at which degradation of the target reaches its halfway point.

Common to all, as to type: cell-based
One assay addresses T1, SMARCA4 (Homo sapiens, UniProt P51532).
T1 construct: SMARCA2 and SMARCA4 protein degradation in MV4-11 cells; endogenous in cells; host or cells: MV4-11
The assay can be described thus: SMARCA4 Western blot MV4-11 degradation. As to conditions: 24 h; for Dmax: MV4-11, MV4-11 cells, read-out: SMARCA4 MSD MV411 degradation 24 h: average Dmax %; for DC50: MV4-11 cells, read-out: SMARCA4 MSD MV411 degradation 24 h: Mean external-Abs DC50. (A western blot detects proteins with antibodies after separation by electrophoresis.)

Assay [1] concerns the target T2, SMARCA2 (Homo sapiens, UniProt P51531). The assay can be described thus: SMARCA2 Western blot MV4-11 degradation. The arrangement: SMARCA2 and SMARCA4 protein degradation in MV4-11 cells; endogenous in cells; host or cells: MV4-11. To be noted: 24 h; for Dmax: MV4-11, MV4-11 cells, read-out: SMARCA2 MSD MV411 degradation 24 h: average Dmax %; for DC50: MV4-11 cells, read-out: SMARCA2 MSD MV411 degradation 24 h: Mean external-Abs DC50.

Assay [2] addresses T2, SMARCA2. The assay can be described thus: MSD SMARCA2 degradation in A549 cell line. Set-up: endogenous in cells. To be noted: 24 h; for Dmax: A549, A549 cells; for DC50: A549 cells, read-out: SMARCA2 MSD A549 degradation 24 h: Average external-Abs DC50. The gist of the method:
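A549 cells treated 24 h with compound, 3-fold series 1000 nM down to 0.152 nM plus DMSO. RIPA lysates captured on MSD plates, probed with rabbit anti-SMARCA2/BRM (1 µg/ml) then SULFO-TAG anti-rabbit, electrochemiluminescence read. DC50 and 24 h Dmax reported as letter bins.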

Bounds are passed on as bounds.

T1 sequence (P51532 whole entry): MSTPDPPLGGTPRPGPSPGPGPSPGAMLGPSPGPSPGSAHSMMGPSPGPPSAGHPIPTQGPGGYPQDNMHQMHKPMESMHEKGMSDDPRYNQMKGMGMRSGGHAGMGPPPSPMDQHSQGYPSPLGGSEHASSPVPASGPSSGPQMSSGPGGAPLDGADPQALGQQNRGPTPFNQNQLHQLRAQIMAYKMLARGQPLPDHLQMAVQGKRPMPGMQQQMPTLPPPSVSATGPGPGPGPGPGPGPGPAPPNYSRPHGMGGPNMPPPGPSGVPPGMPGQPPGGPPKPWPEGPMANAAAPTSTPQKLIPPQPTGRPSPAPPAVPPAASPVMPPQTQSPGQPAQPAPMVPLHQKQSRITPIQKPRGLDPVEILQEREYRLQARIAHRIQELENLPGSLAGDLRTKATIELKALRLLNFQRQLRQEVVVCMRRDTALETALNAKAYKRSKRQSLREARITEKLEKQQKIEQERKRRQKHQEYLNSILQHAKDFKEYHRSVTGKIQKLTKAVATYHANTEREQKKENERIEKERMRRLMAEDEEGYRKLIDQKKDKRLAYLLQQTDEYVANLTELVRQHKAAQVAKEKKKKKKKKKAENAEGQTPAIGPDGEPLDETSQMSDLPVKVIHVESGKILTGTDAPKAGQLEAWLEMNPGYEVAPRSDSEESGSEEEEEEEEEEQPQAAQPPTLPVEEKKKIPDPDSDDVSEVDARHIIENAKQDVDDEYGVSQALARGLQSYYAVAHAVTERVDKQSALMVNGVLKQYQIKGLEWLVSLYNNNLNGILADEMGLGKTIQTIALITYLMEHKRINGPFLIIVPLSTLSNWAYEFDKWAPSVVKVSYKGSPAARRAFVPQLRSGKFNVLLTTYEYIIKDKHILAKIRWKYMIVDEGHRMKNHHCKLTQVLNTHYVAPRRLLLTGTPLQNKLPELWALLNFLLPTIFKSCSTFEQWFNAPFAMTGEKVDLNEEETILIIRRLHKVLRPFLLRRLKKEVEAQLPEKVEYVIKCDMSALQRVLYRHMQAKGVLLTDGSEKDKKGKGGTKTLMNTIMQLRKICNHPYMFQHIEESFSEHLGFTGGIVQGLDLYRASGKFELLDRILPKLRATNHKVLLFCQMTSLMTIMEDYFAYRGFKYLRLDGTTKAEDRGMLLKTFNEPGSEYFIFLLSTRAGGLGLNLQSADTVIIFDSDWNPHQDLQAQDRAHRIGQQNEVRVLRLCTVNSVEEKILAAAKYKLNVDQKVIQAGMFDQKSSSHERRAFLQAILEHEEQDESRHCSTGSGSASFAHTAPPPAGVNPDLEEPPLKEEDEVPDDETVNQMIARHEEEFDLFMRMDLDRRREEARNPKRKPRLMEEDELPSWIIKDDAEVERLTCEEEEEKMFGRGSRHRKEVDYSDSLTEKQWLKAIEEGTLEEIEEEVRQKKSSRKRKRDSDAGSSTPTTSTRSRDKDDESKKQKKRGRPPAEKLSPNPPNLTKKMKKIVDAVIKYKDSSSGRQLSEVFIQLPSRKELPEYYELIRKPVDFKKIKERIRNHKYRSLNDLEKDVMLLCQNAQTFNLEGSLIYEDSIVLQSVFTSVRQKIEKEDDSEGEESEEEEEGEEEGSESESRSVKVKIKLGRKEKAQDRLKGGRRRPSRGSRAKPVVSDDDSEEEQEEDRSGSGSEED
T2 sequence (P51531 whole entry): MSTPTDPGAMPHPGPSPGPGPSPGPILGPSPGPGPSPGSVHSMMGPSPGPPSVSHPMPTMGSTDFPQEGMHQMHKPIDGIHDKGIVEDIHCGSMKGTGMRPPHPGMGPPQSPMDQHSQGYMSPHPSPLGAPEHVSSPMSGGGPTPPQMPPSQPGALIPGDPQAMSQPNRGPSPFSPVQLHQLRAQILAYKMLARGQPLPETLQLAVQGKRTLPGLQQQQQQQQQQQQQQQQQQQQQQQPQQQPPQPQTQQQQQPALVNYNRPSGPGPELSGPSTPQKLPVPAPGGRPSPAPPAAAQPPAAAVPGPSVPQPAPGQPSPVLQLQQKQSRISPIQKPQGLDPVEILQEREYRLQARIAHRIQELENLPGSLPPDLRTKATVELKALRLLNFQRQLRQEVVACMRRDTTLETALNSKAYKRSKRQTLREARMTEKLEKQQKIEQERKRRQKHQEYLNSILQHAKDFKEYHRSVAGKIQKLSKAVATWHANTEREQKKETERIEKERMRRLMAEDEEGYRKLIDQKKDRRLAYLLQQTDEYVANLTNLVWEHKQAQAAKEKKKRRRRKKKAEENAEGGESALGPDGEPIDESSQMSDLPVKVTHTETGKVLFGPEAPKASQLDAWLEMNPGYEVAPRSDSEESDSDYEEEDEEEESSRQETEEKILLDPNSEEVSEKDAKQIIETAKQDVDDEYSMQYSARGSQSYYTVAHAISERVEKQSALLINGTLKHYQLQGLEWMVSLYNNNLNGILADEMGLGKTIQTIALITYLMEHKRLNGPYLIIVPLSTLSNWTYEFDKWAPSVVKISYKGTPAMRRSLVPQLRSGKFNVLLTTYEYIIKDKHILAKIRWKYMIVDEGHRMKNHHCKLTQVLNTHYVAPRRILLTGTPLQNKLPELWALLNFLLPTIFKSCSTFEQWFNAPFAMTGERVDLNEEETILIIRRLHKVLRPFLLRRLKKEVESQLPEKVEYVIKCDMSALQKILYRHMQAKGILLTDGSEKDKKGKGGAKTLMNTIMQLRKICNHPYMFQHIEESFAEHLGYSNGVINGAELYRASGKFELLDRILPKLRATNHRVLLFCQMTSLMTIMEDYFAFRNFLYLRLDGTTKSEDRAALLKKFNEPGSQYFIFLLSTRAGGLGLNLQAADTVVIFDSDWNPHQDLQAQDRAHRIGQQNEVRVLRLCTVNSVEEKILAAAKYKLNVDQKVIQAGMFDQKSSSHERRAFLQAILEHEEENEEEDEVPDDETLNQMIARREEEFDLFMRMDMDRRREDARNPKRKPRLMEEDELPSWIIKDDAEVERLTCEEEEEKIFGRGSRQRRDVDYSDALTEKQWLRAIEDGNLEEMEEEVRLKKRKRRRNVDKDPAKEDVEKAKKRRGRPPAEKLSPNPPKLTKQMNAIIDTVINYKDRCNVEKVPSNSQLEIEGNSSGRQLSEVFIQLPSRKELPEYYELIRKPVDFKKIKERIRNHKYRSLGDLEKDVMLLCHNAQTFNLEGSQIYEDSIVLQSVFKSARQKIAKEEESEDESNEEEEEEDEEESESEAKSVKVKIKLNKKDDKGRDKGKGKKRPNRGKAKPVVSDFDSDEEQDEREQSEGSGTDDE

For `Cc1ncsc1-c1ccc(CNC(=O)[C@@H]2C[C@@H](O)CN2C(=O)[C@@H](NC(=O)N2CC3(CC(N4CCC(c5cnc(N6C7CCC6CN(c6cc(-c8ccccc8O)nnc6N)C7)nc5)CC4)C3)C2)C(C)(C)C)cc1` [I-58, 6-(4-(2-(3-(3-amino-6-(2-hydroxyphenyl)pyridazin-4-yl)-3,8-diazabicyclo[3.2.1]octan-8-yl)pyrimidin-5-yl)piperidin-1-yl)-N—((S)-1-((2S,4R)-4-hydroxy-2-((4-(4-methylthiazol-5-yl)benzyl)carbamoyl)pyrrolidin-1-yl)-3,3-dimethyl-1-oxobutan-2-yl)-2-azaspiro[3.3]heptane-2-carboxamide], the Dmax at SMARCA4 was 50 to 70%; on SMARCA2 [1], greater than 90%; at SMARCA2 [2] it was greater than 90%. In addition, the half-maximal degradation concentration (DC50) is 0.1 to 0.5 µM at SMARCA4, less than 0.1 µM at SMARCA2 [1] and less than 0.1 µM at SMARCA2 [2].
For `Cc1ncsc1-c1ccc(CNC(=O)[C@@H]2C[C@@H](O)CN2C(=O)[C@@H](NC(=O)N2CCC(N3CCC(c4cnc(N5C6CCC5CN(c5cc(-c7ccccc7O)nnc5N)C6)nc4)CC3)CC2)C(C)(C)C)cc1` [I-59, 4-(2-(3-(3-amino-6-(2-hydroxyphenyl)pyridazin-4-yl)-3,8-diazabicyclo[3.2.1]octan-8-yl)pyrimidin-5-yl)-N—((S)-1-((2S,4R)-4-hydroxy-2-((4-(4-methylthiazol-5-yl)benzyl)carbamoyl)pyrrolidin-1-yl)-3,3-dimethyl-1-oxobutan-2-yl)-[1,4′-bipiperidine]-1′-carboxamide], the Dmax at SMARCA4, on SMARCA2 [1] and at SMARCA2 [2] was less than 50% each time. Moreover, the DC50 at SMARCA4 was greater than 1 µM; at SMARCA2 [1], 0.501 to 1 µM; on SMARCA2 [2], greater than 1 µM.
On to `Cc1ncsc1-c1ccc(CNC(=O)[C@@H]2C[C@@H](O)CN2C(=O)C(c2cc(N3CCC(CCN4CCC(c5cnc(N6C7CCC6CN(c6cc(-c8ccccc8O)nnc6N)C7)nc5)CC4)CC3)no2)C(C)C)cc1` (stereo partly drawn) [I-61, (2S,4R)-1-(2-(3-(4-(2-(4-(2-(3-(3-amino-6-(2-hydroxyphenyl)pyridazin-4-yl)-3,8-diazabicyclo[3.2.1]octan-8-yl)pyrimidin-5-yl)piperidin-1-yl)ethyl)piperidin-1-yl)isoxazol-5-yl)-3-methylbutanoyl)-4-hydroxy-N-(4-(4-methylthiazol-5-yl)benzyl)pyrrolidine-2-carboxamide], for which the Dmax at SMARCA4, at SMARCA2 [1] and on SMARCA2 [2] was greater than 90% each time. Further, the DC50 at SMARCA4, at SMARCA2 [1] and at SMARCA2 [2] was less than 0.1 µM each time.
`Cn1nccc1-c1ccc(CNC(=O)[C@@H]2C[C@@H](O)CN2C(=O)[C@@H](NC(=O)[C@H]2CC[C@H](c3cnc(N4C5CCC4CN(c4cc(-c6ccccc6O)nnc4N)C5)nc3)CC2)C(C)(C)C)cc1` [I-68, (2S,4R)-1-((2S)-2-((1r,4S)-4-(2-(3-(3-amino-6-(2-hydroxyphenyl)pyridazin-4-yl)-3,8-diazabicyclo[3.2.1]octan-8-yl)pyrimidin-5-yl)cyclohexanecarboxamido)-3,3-dime-thylbutanoyl)-4-hydroxy-N-(4-(1-methyl-1H-pyrazol-5-yl)benzyl)pyrrolidine-2-carboxamide]: the Dmax at SMARCA4, on SMARCA2 [1] and on SMARCA2 [2] was greater than 90% each time. Moreover, the DC50 on SMARCA4, on SMARCA2 [1] and on SMARCA2 [2] was less than 0.1 µM each time.
`Cc1ncsc1-c1ccc(CNC(=O)[C@@H]2C[C@@H](O)CN2C(=O)[C@@H](NC(=O)CN2CC3(C2)CN(C2CCC(c4cnc(N5C6CCC5CN(c5cc(-c7ccccc7O)nnc5N)C6)nc4)CC2)C3)C(C)(C)C)cc1` (stereo partly drawn) [I-76, (2S,4R)-1-((2S)-2-(2-(6-(4-(2-(3-(3-amino-6-(2-hydroxyphenyl)pyridazin-4-yl)-3,8-diazabicyclo[3.2.1]octan-8-yl)pyrimidin-5-yl)cyclohexyl)-2,6-diazaspiro[3.3]heptan-2-yl)acetamido)-3,3-dimethylbutanoyl)-4-hydroxy-N-(4-(4-methylthiazol-5-yl)benzyl)pyrrolidine-2-carboxamide]: the Dmax on SMARCA4, on SMARCA2 [1] and on SMARCA2 [2] was greater than 90% each time. The half-maximal degradation concentration (DC50) at SMARCA4 is less than 0.1 µM; at SMARCA2 [1], less than 0.1 µM; on SMARCA2 [2], 0.501 to 1 µM.
On to `Cc1ncsc1-c1ccc(CNC(=O)[C@@H]2C[C@H](O)CN2C(=O)[C@@H](NC(=O)[C@H]2CC3(C2)C[C@H](N2CCC(c4cnc(N5C6CCC5CN(c5cc(-c7ccccc7O)nnc5N)C6)nc4)CC2)C3)C(C)(C)C)cc1` (stereo partly drawn) [I-79, (2S,4S)-1-((2S)-2-(6-(4-(2-(3-(3-amino-6-(2-hydroxyphenyl)pyridazin-4-yl)-3,8-diazabicyclo[3.2.1]octan-8-yl)pyrimidin-5-yl)piperidin-1-yl)spiro[3.3]heptane-2-carboxamido)-3,3-dimethylbutanoyl)-4-hydroxy-N-(4-(4-methylthiazol-5-yl)benzyl)pyrrolidine-2-carboxamide], for which the Dmax at SMARCA4, on SMARCA2 [1] and on SMARCA2 [2] was less than 50% in each case. The half-maximal degradation concentration (DC50) on SMARCA4, at SMARCA2 [1] and on SMARCA2 [2] was greater than 1 µM each time.

The values are drawn from patent US12606568B2, “SMARCA degraders and uses thereof” (Kymera Therapeutics, Inc., priority 2020, dated 2026).
